Data from patent US12219958B2, “Glufosinate additive for improved weed control” (THE BOARD OF TRUSTEES OF THE UNIVERSITY OF ARKANSAS, priority 2019, dated 2025).
Counter-ions that a name gives are not always drawn.

Key:
johnsongrass = assay: Field experiment, johnsongrass control with glufosinate + additive at 10 pm (Example 5, FIG. 12); format: in vivo
Palmer amaranth = assay: Field experiment, Palmer amaranth control with glufosinate + additive at 10 pm (Example 5, FIG. 11); format: in vivo, Amaranthus palmeri
[1] = tested on: Enlist cotton, XtendFlex cotton, LibertyLink GT27 soybean, and LibertyLink corn; settings: in vivo
[2] = tested on: Enlist cotton, XtendFlex cotton, LibertyLink GT27 soybean, and LibertyLink corn; settings: in vivo; remark: listed apart in the source
[3] = tested on: native mixture of Palmer amaranth and waterhemp; set-up: species or system Amaranthus palmeri, Amaranthus tuberculatus; settings: in vivo
[4] = tested on: native large crabgrass populations; assay: Field experiment, large crabgrass control (Examples 2 and 3, FIG. 6); format: in vivo; settings: added to glufosinate 655 g ai/ha; saflufenacil 1 g ai/ha, acifluorfen 14 g ai/ha; 10 pm

| SMILES | increase in glufosinate efficacy of johnsongrass (johnsongrass; in vivo) | increase in glufosinate efficacy of Palmer amaranth (Palmer amaranth; in vivo) | crop response [1] | crop impact of glufosinate and the additive applied during the day [2] | crop injury when applied at 10 pm versus 10 am [2] | effect of the additive on reductions in weed control due to low-light intensity [3] | effect of the additive on reductions in weed control due to low-light intensity [4] | increase in glufosinate efficacy of johnsongrass (johnsongrass; low-light conditions (10 pm), glufosinate 655 g ai/ha + additive 280 g ai/ha, 15 to 20-cm tall johnsongrass) | increase in glufosinate efficacy of Palmer amaranth (Palmer amaranth; low-light conditions (10 pm), glufosinate 655 g ai/ha + additive 280 g ai/ha, 25 to 30-cm tall Palmer amaranth) |
| --- | --- | --- | --- | --- | --- | --- | --- | --- | --- |
| CCOP(=S)(OCC)Oc1nc(Cl)c(Cl)cc1Cl [Chlorpyrifos, O,O-Diethyl O-3,5,6-trichloropyridin-2-yl phosphorothioate] | greatest increase | greatest increase | not eliciting a negative crop response | – | – | – | – | – | – |
| CC(C)N(C)S(=O)(=O)NC(=O)c1cc(-n2c(=O)cc(C(F)(F)F)n(C)c2=O)c(F)cc1Cl [saflufenacil, N′-{2-Chloro-4-fluoro-5-[1,2,3,6-tetrahydro-3-methyl-2,6-dioxo-4-(trifluoromethyl)pyrimidin-1-yl]benzoyl}-N-isopropyl-N-methylsulfamide] | – | – | – | negatively impacted at least one of the crops | less | did not alleviate reductions in weed control | did not alleviate reductions in weed control | – | – |
| CCOC(=O)/C=C\C(=O)OCC [diethyl maleate] | – | – | – | – | – | – | – | greatest increase | greatest increase |
| O=C(O)c1cc(Oc2ccc(C(F)(F)F)cc2Cl)ccc1[N+](=O)[O-] [acifluorfen] | – | – | – | negatively impacted at least one of the crops | less | did not alleviate reductions in weed control | did not alleviate reductions in weed control | – | – |
